{
  "source": "patent US20240424051A1",
  "about": "“COMPOSITION FOR TREATING […] OS[…] MECHANISM PROMOTING FORMATION OF MUSCLE FIBERS OR INHIBITING OSTEOCLASTOGENESIS, […]-L-PHENYLALANYL-L-PROLINE DIPEPTIDES” (CELLBION CO., LTD, priority 2021, published 2024)",
  "key": {"myoblasts": {"tested_on": "myoblasts", "assay": "Differentiation of myoblasts and LADD staining (muscle fiber formation experiment)", "type": "cell-based", "conditions": "mouse myoblasts, LADD staining, compared to vehicle, FIG. 1", "from_the_text": "Muscle growth is due to the formation of muscle fibers according to the binding between individual myoblasts. Therefore, the improvement of muscle growth can be estimated through the degree of muscle fiber formation in the environment that induced the binding of myoblasts. Accordingly, myoblasts were isolated from the muscle tissue of a subject and cultured, and whether muscle fibers were formed using the isolated myoblasts was observed.\nThe formation of muscle fibers can be evaluated by measuring the number of myoblasts that form muscle fibers and the thickness of the formed muscle fibers. To this end, a high-magnification optical microscope was used to identify the nucleus in the muscle fiber through muscle fiber staining. The thickness of the muscle fiber was also measured.\nThe muscle tissue was minced with a scalpel for 5 minutes. The minced muscle solution was incubated at 37° C. for 60 minutes and then centrifuged at 1500 rpm for 5 minutes. The obtained cells were suspended in Ham's F-10 medium containing 20% heat-inactivated horse serum and 50 units/ml of penicillin in the presence of basic FGF (2.5 ng/ml), and then plated on a cell culture dish for 1 hour without gelatin coating. After 1 hour, the suspended cells were transferred to a secondary cell culture dish without gelatin coating and cultured for 1 hour. […]"}, "muscle mass of mice": {"tested_on": "muscle mass of mice", "assay": "Muscle collection and weighing after oral gavage of cFP", "type": "in vivo, mouse", "conditions": "male C57BL/6J mice, oral gavage every 24 hours, compared to the control group, FIG. 3", "description": "According to an embodiment of the present invention, the increase in muscle weight and bone mass by oral administration of cyclo-L-phenylalanyl-L-proline (cFP) was measured. Muscle weight was measured by separating the muscles of the mouse according to anatomical muscle classification. In addition, trabecular bone analysis on the femur of the mouse was performed using high-resolution micro-CT (SMX-90CT system). Based on the growth plate of the femur, the lower part of the 1 mm was the starting point of the analysis, and the analysis was conducted from the starting point to 1.5 mm below the bone. Each indicator means as follows. bone volume/total bone volume (BV/TV, %), bone surface/trabecular bone volume (BS/BV, 1/mm), trabecular thickness (Tb. Th, mm), trabecular number (Tb.N, 1/mm), trabecular separation (Tb. Sp, mm).\nAnimal studies were conducted in accordance with the guidelines for animal research. All experimental procedures were approved by the Animal Care and Use Committee of Seoul National University Animal Hospital. Male C57BL/6J mice at 4 or 6 weeks of age were purchased from Orient Bio Inc. (Seongnam, Korea) and housed in a specific pathogen-free (SPF) animal facility with controlled temperature (22° C.), humidity (55%), and a 12-hour light-dark cycle. All animals were provided with a free feeding and drinking system. […]"}, "[1]": {"tested_on": "trabecular bone of mouse femur", "assay": "Micro-CT analysis of trabecular bone of femur after free drinking of cFP", "type": "in vivo", "conditions": "cFP in drinking water (free drinking), FIG. 4"}},
  "data": [
    {"smiles": "O=C1NC(Cc2ccccc2)C(=O)N2CCCC12", "note": "[cFP, cyclo-L-phenylalanyl-L-proline]", "values": [
      {"measurement": "fusion of myoblasts (muscle fiber formation; diameter of myotube and number of nuclei of myotube)", "setting": "myoblasts", "value": "promoted the fusion of myoblasts"},
      {"measurement": "muscle mass of the mice", "setting": "muscle mass of mice", "value": "increased"},
      {"measurement": "BV/TV (bone volume/total bone volume)", "setting": "[1]", "value": "significantly high"},
      {"measurement": "Tb. N (trabecular number)", "setting": "[1]", "value": "significantly high"},
      {"measurement": "Tb. Th (trabecular thickness)", "setting": "[1]", "value": "significantly high"}
    ]}
  ]
}
